According to US11291719B2, “Methods and compositions for modulating Akt3” (Augusta University Research Institute, Inc., priority 2016, dated 2022):

Key:
Akt3 pS472 = molecular target: T1, Akt3 pS472 (Homo sapiens, UniProt Q9Y243); experiment: Akt3 phosphorylation in A2780 cells; assay type: cell-based; details: human ovarian carcinoma cells (A2780)
T1 construct: expression of Akt1 pS473, Akt2 pS474, Akt3 pS472, and Akt pan 5473,474,472 in A2780 cells; endogenous in cells; host or cells: A2780 human ovarian carcinoma cells
Source text: (§1) FIG. 10 is a bar graph showing the effect of mJJ64A on the expression of Akt1 pS473, Akt2 pS474, Akt3 pS472, and Akt pan 5473,474,472 in A2780 cells compared to control. The Y axis represents integrated density value.

[1] = test system: experimental autoimmune encephalomyelitis (EAE); experiment: Experimental autoimmune encephalomyelitis (EAE) model; assay type: in vivo, mouse
Source text: FIG. 24A is a schematic illustration of induction of experimental autoimmune encephalomyelitis (EAE) model. FIG. 24B is a chart showing the grading criterion for scoring severity of EAE. FIG. 24C is a line graph showing EAE score over time (days post EAE induction) for control (●), iTreg (blue circle), and mJJ64A-10 (▾) treated mice. The X-axis represents time (days) and the Y-axis represents EAE score. FIG. 24D is a line graph showing percent survival over time (days) for untreated (•), iTreg treated (●), and mJJ64A-10 treated (▾) mice. The X-axis represents time (days) and the Y-axis represents percent survival. FIG. 24E is a line graph representing EAE score over time (days post EAE induction) for control (●), iTreg (♦), mJJ64A-3 (blue circle), mJJ64A-6 (▾), and mJJ64A-10 (▴) treated EAE mice. The X-axis represents time (days post EAE induction) and the Y-axis represents EAE score. FIG. 24F is a line graph representing percent survival over time (days) for untreated (•), iTreg (blue circle), mJJ64A-3 (▾), mJJ64A-6 (▴), and mJJ64A-10 (♦) treated EAE mice. The X-axis represents time (days) and the Y-axis represents percent survival.

Akt1 pS473 = molecular target: T2, Akt1 pS473 (Homo sapiens, UniProt P31749); experiment: Akt1 phosphorylation in A2780 cells; assay type: cell-based; details: human ovarian carcinoma cells (A2780)
T2 construct: expression of Akt1 pS473, Akt2 pS474, Akt3 pS472, and Akt pan 5473,474,472 in A2780 cells; endogenous in cells; host or cells: A2780 human ovarian carcinoma cells
Source text: as §1

[2] = test system: Tregs, CD8+ and FoxP3NEG CD4 T cells; experiment: T cell populations in tumors and spleens of TC-1 mice; assay type: in vivo, mouse
Source text: FIG. 19A is a bar graph representing the number of CD8^+ cells per 10^6 live cells in tumors from untreated and mJJ64A treated mice. FIG. 19B is a bar graph representing the number of CD4^+ cells per 10^6 live cells in tumors from untreated and mJJ64A treated mice. FIG. 19C is a bar graph representing the number of FoxP3^+ cells per 10^6 CD4^+ cells in tumors from untreated and mJJ64A treated mice. FIG. 19D is a bar graph representing the number of CD8^+, FoxP3^NEG CD4^+, and Treg cells per 10^6 live cells in the spleen of untreated or mJJ64A treated tumor-bearing mice. FIG. 19E is a bar graph representing the number of CD8^+, FoxP3^NEG CD4^+, and Treg cells per 10^6 live cells in the spleen of untreated or mJJ64A treated tumor-free mice.

Akt3 = molecular target: T3, Akt3 (Homo sapiens, UniProt Q9Y243); experiment: Western blot of Akt3 in Tconv cells during iTreg induction; assay type: cell-based; details: TGF-β induced
T3 construct: endogenous in cells
Source text: FIG. 12 is a western blot showing the expression of FoxP3, pAkt3, Akt3, pAkt1, and Akt1 in activated Tconv cells induced with TGF-β and treated with various concentrations of mJJ64A.

experimental colitis = experiment: Experimental colitis model; assay type: in vivo, mouse; details: Rag-/- colitis mice
Source text: FIG. 20A is a schematic illustration of the experimental design of a colitis model. FIG. 20B is a line graph representing weight (g) over time (days post-injection) for control (●), iTreg (▪), mJJ64A+iTreg (▴), and mJJ64A (∘) treated colitis mice. FIG. 20C is a line graph representing normalized weight over time (days post-injection) for control (●), iTreg (▪), mJJ64A+iTreg (▴), and mJJ64A (∘) treated colitis mice. FIG. 20D is a line graph showing percent survival of untreated (●), iTreg (blue circle), mJJ64A+iTreg (▾), and mJJ64A (red circle) treated colitis mice. The X-axis represents time (days) and the Y-axis represents percent survival. FIG. 20E-20I are representative photos of untreated (FIG. 20E), iTreg treated (FIG. 20F), JJa treated iTreg (FIG. 20G), untreated (FIG. 20H), and mJJ64A treated (FIG. 20I) colitis mice. […] FIG. 21A is a photo showing representative colons from untreated (UT), iTreg, mJJ64A treated iTreg, mJJ64A, and wild-type (WT) mice. FIG. 21B is a bar graph representing length and weight of colons from normal, untreated (UT), iTreg, mJJ64A, and mJJ64A+iTreg mice. The X-axis represents the treatment group and the Y-axis represents colon weight/length (mg/mm). […]

T2 sequence (P31749 whole entry): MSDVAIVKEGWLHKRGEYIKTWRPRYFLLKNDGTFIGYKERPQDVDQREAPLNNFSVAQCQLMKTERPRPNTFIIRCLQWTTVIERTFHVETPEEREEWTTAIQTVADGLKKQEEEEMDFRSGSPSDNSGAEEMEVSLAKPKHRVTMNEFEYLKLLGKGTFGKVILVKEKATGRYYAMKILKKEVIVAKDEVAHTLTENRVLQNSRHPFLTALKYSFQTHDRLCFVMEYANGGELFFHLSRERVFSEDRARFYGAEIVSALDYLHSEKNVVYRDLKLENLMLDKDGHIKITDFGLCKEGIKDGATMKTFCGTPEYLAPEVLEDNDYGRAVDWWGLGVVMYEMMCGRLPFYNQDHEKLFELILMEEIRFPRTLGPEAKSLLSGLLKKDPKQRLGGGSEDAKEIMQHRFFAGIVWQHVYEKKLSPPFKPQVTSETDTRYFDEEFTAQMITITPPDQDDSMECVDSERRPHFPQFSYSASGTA
T1 sequence (Q9Y243 whole entry): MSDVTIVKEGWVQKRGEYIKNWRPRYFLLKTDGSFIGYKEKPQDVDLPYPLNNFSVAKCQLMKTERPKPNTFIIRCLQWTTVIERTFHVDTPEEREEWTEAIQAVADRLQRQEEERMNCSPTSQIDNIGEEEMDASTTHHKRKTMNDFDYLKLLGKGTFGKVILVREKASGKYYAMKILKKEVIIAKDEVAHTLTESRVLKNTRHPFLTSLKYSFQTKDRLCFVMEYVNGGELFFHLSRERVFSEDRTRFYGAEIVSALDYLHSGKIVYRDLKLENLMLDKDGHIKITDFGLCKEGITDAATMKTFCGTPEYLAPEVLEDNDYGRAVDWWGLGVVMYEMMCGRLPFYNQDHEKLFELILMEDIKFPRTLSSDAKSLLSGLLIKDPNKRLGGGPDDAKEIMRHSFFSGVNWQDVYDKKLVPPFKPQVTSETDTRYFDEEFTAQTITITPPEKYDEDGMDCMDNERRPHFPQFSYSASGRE
T3 sequence (Q9Y243 whole entry): as above

Which “phosphorylation of Akt3” value (Akt3 pS472) does the source give for `N#Cc1ccc2nccc(Nc3ccc(C(=O)Nc4ccc(Nc5ccncc5)cc4)cc3)c2c1` [Compound 2] here?
The value was “significantly increases”.

What about the “disease progression in EAE model” value ([1]; EAE score) of the same molecule?
The value was “reduced”.

What about the “survival rate in EAE model” value ([1]; mouse, in vivo) of the same molecule?
The value was “increased”.

What about the “phosphorylation of Akt1” value (Akt1 pS473) of the same molecule?
Its value is “not”.

What about the “number of Tregs in the tumors and spleens” value ([2]; compared to untreated controls) of the same molecule?
The value was “increased”.

And the “tumor-infiltration of CD8+ and FoxP3NEG CD4 T cells” value ([2]; mouse, in vivo)?
The value was “not affected”.

What about the “expression of Akt3 in Tconv cells during iTreg induction” value (Akt3) of the same molecule?
Its value is “increased”.

And the “protection against experimental colitis” value (experimental colitis)?
The value was “protected”.
